Measured values as given in US8778923B2, “GLP-1 receptor modulators” (Receptos, Inc., priority 2011, dated 2014).

Biological target: T1, GLP-1R (Homo sapiens, UniProt P43220)
T1 construct: host or cells: CRE-bla CHO-K1
Assay: EC20 GLP-1(9-36) PAM cAMP assay: dose response of compound in the presence of fixed concentration of GLP-1(9-36)
Format: cell-based
Details: GLP-1R CRE-bla CHO-K1 cells, compound dose response in presence of fixed concentration of GLP-1(9-36)
In short: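 GLP-1R CRE-bla CHO-K1 cells in HBSS/10 mM Hepes/0.1% BSA pH 7.4 with IBMX got a 12-point compound dose response plus fixed EC20 GLP-1(9-36), 30 min at 37 °C. cAMP measured by HitHunter luminescence against a standard curve; EC50 and Emax by non-linear regression.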

T1 sequence (P43220 24-463): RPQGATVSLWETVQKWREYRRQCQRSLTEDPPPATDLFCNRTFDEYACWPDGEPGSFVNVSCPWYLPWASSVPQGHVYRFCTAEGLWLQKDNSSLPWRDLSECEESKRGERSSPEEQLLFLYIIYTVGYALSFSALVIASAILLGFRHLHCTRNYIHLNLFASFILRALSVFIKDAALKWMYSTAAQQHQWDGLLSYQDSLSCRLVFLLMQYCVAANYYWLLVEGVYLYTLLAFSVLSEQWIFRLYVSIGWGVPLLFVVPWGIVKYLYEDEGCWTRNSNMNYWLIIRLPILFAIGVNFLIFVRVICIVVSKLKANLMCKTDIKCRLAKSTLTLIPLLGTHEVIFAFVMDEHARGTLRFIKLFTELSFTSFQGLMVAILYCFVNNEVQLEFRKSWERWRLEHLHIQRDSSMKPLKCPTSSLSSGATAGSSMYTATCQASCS
T1 sequence (P01275 100-127 partner limits assumed): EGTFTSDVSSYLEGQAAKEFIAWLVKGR

Row | Structure (SMILES) | EC50
1 | CCCCCCCOc1ccc(-c2cnc(-c3ccc(C[C@H](NS(=O)(=O)c4ccc(OC(C)C)cc4)C(=O)O)cc3)nc2)cc1 [Compound 189] | 800 to 2500 nM
2 | Cc1ccc(-c2cnc(-c3ccc(C[C@H](NC(=O)c4ccc(C(C)(C)C)cc4)C(=O)O)cc3)nc2)cc1C [Compound 227] | 2500 to 5000 nM
3 | CCCCCCCOc1ccc(-c2cnc(-c3ccc(C[C@H](NC(=O)c4ccn(C(C)C)n4)C(=O)O)cc3)nc2)cc1 [Compound 144] | 800 to 2500 nM
4 | CCCCCCCOc1ccc(-c2cnc(-c3ccc(C[C@H](NC(=O)c4ccc(C(C)(C)C)s4)C(=O)NCC(=O)O)cc3)nc2)cc1 [Compound 319, (S)-(2-(5-(tert-butyl)thiophene-2-carboxamido)-3-(4-(5-(4-(heptyloxy)phenyl)pyrimidin-2-yl)phenyl)propanoyl)glycine] | < 800 nM
5 | CCCCCCCOc1ccc(-c2cnc(-c3ccc(C[C@H](NC(=O)c4ccc(C(C)(C)C)cc4)C(=O)NS(C)(=O)=O)cc3)nc2)cc1 [Compound 299, (S)-4-(tert-butyl)-N-(3-(4 (5 (4 (heptyloxy)phenyl)pyrimidin-2-yl)phenyl)-1-(methylsulfonamido)-1-oxopropan-2-yl)benzamide] | < 800 nM
6 | CC(C)(C)c1ccc(C(=O)N[C@@H](CCc2ccc(-c3noc(-c4ccc(N5CCCCC5)cc4)n3)cc2)C(=O)O)cc1 [Compound 74] | 2500 to 5000 nM
7 | CC(C)Nc1ccc(-c2nc(-c3ccc(C[C@H](NC(=O)c4ccc(C(C)(C)C)cc4)C(=O)O)cc3)no2)cc1 [Compound 65] | 2500 to 5000 nM
8 | CCCCCCCOc1ccc(-c2cnc(-c3ccc(C[C@H](NC(=O)c4ccc(CC(C)C)cc4)C(=O)O)cc3)nc2)cc1 [Compound 100] | 800 to 2500 nM
9 | CCCCCCCOc1ccc(-c2cnc(-c3ccc(C[C@H](NC(=O)c4ccc(C(C)C)cc4)C(=O)N[C@H](CCCCN)C(=O)O)cc3)nc2)cc1 [Compound 314] | 800 to 2500 nM
10 | CC(C)(C)c1ccc(C(=O)NC(C(=O)O)c2ccc(-c3noc(-c4ccc(N5CCCCC5)cc4)n3)cc2)cc1 (stereo not shown) [Compound 72] | 5000 to 10000 nM
11 | CC(C)(C)c1ccc(C(=O)N[C@@H](Cc2ccc(-c3noc(-c4ccc(C(C)(C)C)cc4)n3)cc2)C(=O)O)cc1 [Compound 8] | 800 to 2500 nM
12 | CC(C)(C)c1ccc(C(=O)N[C@@H](Cc2ccc(-c3ncc(-c4ccc5ccccc5c4)cn3)cc2)C(=O)O)s1 [Compound 245] | 800 to 2500 nM
13 | CCCCCCCOc1ccc(-c2cnc(-c3ccc(C[C@H](NC(=O)c4ccc(C(C)(C)C)s4)C(=O)N[C@@H](CC(=O)O)C(=O)O)cc3)nc2)cc1 [Compound 322] | 800 to 2500 nM
14 | CCCCCCCOc1ccc(-c2cnc(-c3ccc(C[C@H](NC(=O)c4ccc(C(C)(C)C)s4)C(=O)N[C@@H](CO)C(=O)O)cc3)nc2)cc1 [Compound 326] | < 800 nM
15 | CC(C)(C)c1ccc(C(=O)N[C@@H](Cc2ccc(-c3ncc(-c4cccc(-c5ccccc5)c4)cn3)cc2)C(=O)O)cc1 [Compound 218] | 2500 to 5000 nM
16 | CC(C)(C)c1ccc(-c2cnc(-c3ccc(C[C@H](NC(=O)c4ccc(C(C)(C)C)s4)C(=O)N4CCC[C@H]4C(=O)O)cc3)nc2)cc1 [Compound 362] | 2500 to 5000 nM
17 | CC(C)(C)c1ccc(C(=O)N[C@@H](Cc2ccc(-c3noc(-c4ccc(-c5ccccc5Cl)cc4)n3)cc2)C(=O)O)cc1 [Compound 18] | 800 to 2500 nM
18 | CCCCCCCOc1ccc(-c2cnc(-c3ccc(C[C@H](NC(=O)c4cnn(C(C)C)c4)C(=O)NCC(=O)O)cc3)nc2)cc1 [Compound 369] | 800 to 2500 nM
19 | CC(C)c1ccc(C(=O)N[C@@H](Cc2ccc(-c3ncc(-c4ccc(C(C)(C)C)cc4)cn3)cc2)C(=O)O)cc1 [Compound 161] | 800 to 2500 nM
20 | CCCCCCCOc1ccc(C2CCN(c3ccc(C[C@H](NC(=O)c4ccc(C(C)(C)C)cc4)C(=O)O)cc3)CC2)cc1 [Compound 264] | 800 to 2500 nM
21 | CC(C)(C)c1ccc(-c2cnc(-c3ccc(C[C@H](NC(=O)c4ccc(C(F)(F)F)cc4)C(=O)O)cc3)nc2)cc1 [Compound 174] | < 800 nM
22 | CC(C)(C)c1ccc(C(=O)N[C@@H](Cc2ccc(-c3ncc(-c4ccc(Cl)cc4)cn3)cc2)C(=O)O)cc1 [Compound 211] | 5000 to 10000 nM
23 | CCCCCCCOc1ccc(-c2cnc(-c3ccc(C[C@H](NC(=O)c4ccc(C(C)(C)C)cc4)C(=O)O)cc3)cn2)cc1 [Compound 272] | 800 to 2500 nM
24 | CCCCCCCOc1ccc(-c2cnc(-c3ccc(C[C@H](NC(=O)c4ccc(C(C)(C)C)cc4)C(=O)NCC(=O)O)cc3)nn2)cc1 [Compound 276] | 800 to 2500 nM
25 | CC(C)(C)c1ccc(-c2cnc(-c3ccc(C[C@H](NC(=O)c4ccc(C(C)(C)C)s4)C(=O)N[C@@H](CC(=O)O)C(=O)O)cc3)nc2)cc1 [Compound 361] | 800 to 2500 nM
26 | CCCCCCCOc1ccc(-c2cnc(-c3ccc(C[C@H](NC(=O)c4ccc(C)c(C)c4)C(=O)O)cc3)nc2)cc1 [Compound 117] | < 800 nM

Row | Structure (SMILES) | EC50
27 | CC(C)(C)c1ccc(C(=O)N[C@@H](Cc2ccc(-c3noc(-c4ccc(-c5ccc(F)c(F)c5)cc4)n3)cc2)C(=O)O)cc1 [Compound 22] | 2500 to 5000 nM
28 | CCCCCCCOc1ccc(-c2cnc(-c3ccc(C[C@@H](CC(=O)O)NC(=O)c4ccc(C(C)(C)C)cc4)cc3)nc2)cc1 [Compound 291, (S)-3-(4-(tert-butyl)benzamido)-4-(4-(5-(4-(heptyloxy)phenyl)pyrimidin-2-yl)phenyl)butanoic acid] | 800 to 2500 nM
29 | CC(C)(C)c1ccc(C(=O)N[C@@H](Cc2ccc(-c3ncc(-c4ccc(C(F)(F)F)cc4)cn3)cc2)C(=O)O)s1 [Compound 240] | 2500 to 5000 nM
30 | CC(C)(C)c1ccc(-c2cnc(-c3ccc(C[C@H](NC(=O)c4ccc(C(C)(C)C)s4)C(=O)NC(CN)C(=O)O)cc3)nc2)cc1 (stereo partly shown) [Compound 366] | 2500 to 5000 nM
31 | CCCCCCCOc1ccc(-c2ccc(-c3ccc(C[C@H](NC(=O)c4ccc(C(C)(C)C)s4)C(=O)O)cc3)nc2)cc1 [Compound 277] | < 800 nM
32 | CN1CCCc2c(-c3nc(-c4ccc(C[C@H](NC(=O)c5ccc(C(C)(C)C)cc5)C(=O)O)cc4)no3)cccc21 [Compound 52] | 800 to 2500 nM
33 | CCOc1ccc(-c2cnc(-c3ccc(C[C@H](NC(=O)c4ccc(C(C)(C)C)cc4)C(=O)O)cc3)nc2)cc1 [Compound 221] | 2500 to 5000 nM
34 | CCCCCCCOc1ccc(-c2ccc(-c3ccc(C[C@H](NC(=O)c4ccc(C(C)(C)C)s4)C(=O)O)cc3)nn2)cc1 [Compound 279] | 5000 to 10000 nM
35 | CC(C)(C)c1ccc(C(=O)N[C@@H](Cc2ccc(-c3noc(-c4ccc(C(N)=O)cc4)n3)cc2)C(=O)O)cc1 [Compound 61] | 2500 to 5000 nM
36 | CCCCCCCOc1ccc(-c2coc(-c3ccc(C[C@H](NC(=O)c4ccc(C(C)(C)C)cc4)C(=O)O)cc3)n2)cc1 [Compound 77] | 800 to 2500 nM
37 | CCCCCCCOc1ccc(-c2cnc(-c3ccc(C[C@H](NS(=O)(=O)c4ccc(OC)cc4)C(=O)O)cc3)nc2)cc1 [Compound 186] | 800 to 2500 nM
38 | CCc1ccc(C(=O)N[C@@H](Cc2ccc(-c3ncc(-c4ccc(C(C)(C)C)cc4)cn3)cc2)C(=O)O)s1 [Compound 166] | 800 to 2500 nM
39 | CCCCCCCOc1ccc(-c2cnc(-c3ccc(C[C@H](NC(=O)c4ccc(C(C)(C)C)cc4)C(=O)NCCC(=O)O)cc3)nc2)cc1 [Compound 298, (S)-3-(2-(4-(tert-butyl)benzamido)-3-(4-(5-(4-(heptyloxy)phenyl)pyrimidin-2-yl)phenyl)propanamido)propanoic acid] | < 800 nM
40 | CCCCCCCOc1ccc(-c2cnc(-c3ccc(C[C@H](NC(=O)c4ccc(C(C)(C)C)s4)C(=O)N[C@@H](CCC(N)=O)C(=O)O)cc3)nc2)cc1 [Compound 320, ((S)-2-(5-(tert-butyl)thiophene-2-carboxamido)-3-(4-(5-(4-(heptyloxy)phenyl)pyrimidin-2-yl)phenyl)propanoyl)-L-glutamine] | < 800 nM
41 | COc1cccc(-c2cnc(-c3ccc(C[C@H](NC(=O)c4ccc(C(C)(C)C)cc4)C(=O)O)cc3)nc2)c1 [Compound 215] | 2500 to 5000 nM
42 | CCCCCCOc1ccc(-c2cnc(-c3ccc(C[C@H](NC(=O)c4ccc(C(C)(C)C)cc4)C(=O)O)cc3)nc2)cc1 [Compound 225, (S)-2-(4-(tert-butyl)benzamido)-3-(4-(5-(4-(hexyloxy)phenyl)pyrimidin-2-yl)phenyl)propanoic acid] | < 800 nM
43 | CC(C)(C)c1ccc(C(=O)N[C@@H](Cc2ccc(-c3noc(-c4ccc(-c5cc(F)ccc5F)cc4)n3)cc2)C(=O)O)cc1 [Compound 23] | 2500 to 5000 nM
44 | CNc1ccc(-c2nc(-c3ccc(C[C@H](NC(=O)c4ccc(C(C)(C)C)cc4)C(=O)O)cc3)no2)cc1 [Compound 63] | 800 to 2500 nM
45 | CC(C)n1cc(C(=O)N[C@@H](Cc2ccc(-c3ncc(-c4ccc(C(C)(C)C)cc4)cn3)cc2)C(=O)O)cn1 [Compound 167] | 800 to 2500 nM
46 | CCCCCCCOc1ccc(-c2cnc(-c3ccc(C[C@H](NC(=O)c4ccc(C(C)(C)C)s4)C(=O)O)cc3)nc2)cc1 [Compound 192, (S)-2-(5-(tert-butyl)thiophene-2-carboxamido)-3-(4-(5-(4-(heptyloxy)phenyl)-pyrimidin-2-yl)phenyl)propanoic acid] | < 800 nM
47 | CCCCCCCOc1ccc(-c2cnc(-c3ccc(C[C@H](NS(=O)(=O)c4ccc(Cl)cc4)C(=O)O)cc3)nc2)cc1 [Compound 185] | 800 to 2500 nM
48 | CC(C)(C)c1ccc(C(=O)N[C@@H](Cc2ccc(-c3noc(-c4ccc(OCc5ccccc5)cc4)n3)cc2)C(=O)O)cc1 [Compound 36] | 2500 to 5000 nM
49 | CCCCCCCOc1ccc(-c2cnc(-c3ccc(C[C@H](NC(=O)c4ccc(C)cc4)C(=O)O)cc3)nc2)cc1 [Compound 110] | 800 to 2500 nM
50 | CCCCCCCOc1ccc(-c2cnc(-c3ccc(C[C@H](NC(=O)c4ccc(C(C)(C)C)s4)C(=O)N(C)CCC(=O)O)cc3)nc2)cc1 [Compound 334] | 800 to 2500 nM
51 | CCCCCCCOc1ccc(-c2cnc(-c3ccc(C[C@H](NC(=O)c4ccc(C(C)(C)C)s4)C(=O)NCC(=O)O)cc3)cn2)cc1 [Compound 284] | 800 to 2500 nM
52 | CC(C)(C)c1ccc(C(=O)N[C@@H](Cc2ccc(-c3noc(-c4cccc5c4CCNC5)n3)cc2)C(=O)O)cc1 [Compound 66] | 2500 to 5000 nM
